Results as given in ChEMBL document CHEMBL1129211, “Design and synthesis of sialyl Lex mimetics based on carbocyclic scaffolds derived from () quinic acid” (Bioorg Med Chem Lett, 1997).

Assays:
[1] = molecular target: T1, E-selectin (Homo sapiens) (UniProt P16581); test: Tested for binding activity against Selectin E of the compound; inactive
T1 sequence (whole entry): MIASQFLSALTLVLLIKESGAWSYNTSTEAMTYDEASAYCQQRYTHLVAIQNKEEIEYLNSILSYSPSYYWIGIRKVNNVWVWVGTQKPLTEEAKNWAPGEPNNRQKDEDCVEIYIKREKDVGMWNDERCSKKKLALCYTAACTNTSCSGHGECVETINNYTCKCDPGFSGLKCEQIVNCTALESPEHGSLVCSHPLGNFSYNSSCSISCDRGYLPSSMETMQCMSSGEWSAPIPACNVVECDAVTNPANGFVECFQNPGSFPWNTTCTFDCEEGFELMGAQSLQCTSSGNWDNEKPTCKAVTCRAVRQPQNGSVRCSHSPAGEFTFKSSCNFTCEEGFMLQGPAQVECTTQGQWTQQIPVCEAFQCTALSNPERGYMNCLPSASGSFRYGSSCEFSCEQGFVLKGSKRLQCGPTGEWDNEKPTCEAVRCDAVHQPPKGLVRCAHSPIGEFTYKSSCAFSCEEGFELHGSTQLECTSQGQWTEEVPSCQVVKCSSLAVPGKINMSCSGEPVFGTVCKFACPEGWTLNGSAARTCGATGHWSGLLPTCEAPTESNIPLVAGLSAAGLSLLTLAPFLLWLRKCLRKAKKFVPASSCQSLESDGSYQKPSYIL

[2] = molecular target: T1, E-selectin (Homo sapiens); test: Tested for binding activity against Selectin E of the compound

Activity [1]	Activity [2]	SMILES
> 10 mM	–	CC1OC(OC(C)(C)COCC2CC(O)C(O)C(OCC(=O)O)C2)C(O)C(O)C1O (centres undefined)
–	1 mM	CC(=O)N[C@H]1[C@H]([C@H](O)[C@H](O)CO)O[C@@](O[C@@H]2[C@H](O)[C@H](O[C@@H]3C[C@](O)(CO)C[C@H](O)[C@H]3O[C@@H]3O[C@@H](C)[C@@H](O)[C@H](O)[C@@H]3O)O[C@@H](CO)[C@@H]2O)(C(=O)O)C[C@H]1O
> 10 mM	–	C[C@@H]1O[C@@H](O[C@@H]2[C@@H](O)C[C@@](O)(CO)C[C@H]2O[C@@H]2O[C@@H](CO)[C@H](O)[C@H](OCC(=O)O)[C@@H]2O)[C@@H](O)[C@@H](O)[C@@H]1O
> 10 mM	–	CC1OC(OC(C)(C)COCC2(O)CCC(O)C(OCC(=O)O)C2O)C(O)C(O)C1O (centres undefined)
